US5698411A, “Method for determining activity of enzymes in metabolically active whole cells” (priority 1995, dated 1997)
Values joined by “and” are separate entries in the source; they are usually repeats but may differ in a detail not shown here. Identical values can stand only once.

How the values were obtained:
Format in all cases: cell-based, human
[1] = tested on: metabolically active whole cell; test: substrate panel in normals and HIV + patients, TB infection (Table 4); parameters: unit not given here
Protocol: A panel of assay compounds are assembled consisting of Ala-aminopeptidase and Lys-aminopeptidase, Dipeptidyl peptidase IV (Ala-Ala)2 rhodamine 110 and Cathepsin D to indicate possible TB infection in AIDS related cases.
A panel Of enzymatic substrates is performed consisting of Ala-aminopeptidase and Lys-aminopeptidase, Dipeptidyl peptidase IV (Ala-Ala)2 rhodamine 110 and Cathepsin D to indicate possible TB infection in AIDS related cases.

granulocytes [2] = test: peptidase activity in leukemia and non-leukemia patients, granulocytes (Table 6C); parameters: unit not given here
From the text: (§1) Artificial intelligence was used to analyze data of cellular enzyme functions, and determine normal and disease states. Peptidases were used to distinguish leukemia from non-leukemia (output pattern). For input patterns lymphocyte and granulocyte cell types were used with aminopeptidases, cathepsins and dipeptidylpeptidase enzyme activities. In this Example, illustrated in Tables 6A-6C, three normals and three leukemia patients were used as known output patterns for the neural network to learn (in practice, the larger the learning set the more accurate unknown prediction will be). Unknowns were then presented to the learned algorithm as shown in the test case examples. Clinical diagnosis was confirmed by physicians. The trained neural network was able to correctly classify the leukemia from the non-leukemia.

monocytes = test: aberrant enzyme activities in febrile children, monocytes (Table 7)
granulocytes [3] = test: aberrant enzyme activities in febrile children, granulocytes (Table 7)
lymphocytes [4] = test: aberrant enzyme activities in febrile children, lymphocytes (Table 7)
lymphocytes [5] = test: peptidase activity in leukemia and non-leukemia patients, lymphocytes (Table 6C); parameters: unit not given here
From the text: as §1

Structure (SMILES): NC(=O)CC[C@H](N)C(=O)N[C@@H](CO)C(=O)Nc1ccc2c(c1)Oc1cc(NC(=O)[C@H](CO)NC(=O)[C@@H](N)CCC(N)=O)ccc1C21OC(=O)c2ccccc21 (relative stereo) [GLN--SER*]
- MEAN DELTA FL ([1]; HIV + PATIENTS): 13.7 and 12.7
- MEAN DELTA FL ([1]; NORMALS): 11.9 and 6.1

Structure (SMILES): C[C@H](N)C(=O)Nc1ccc2c(c1)Oc1cc(NC(=O)[C@H](C)N)ccc1C21OC(=O)c2ccccc21 [ALA, (Ala)2 Rho 110]
- enzyme activity, Grans (granulocytes [2]; J4 11/21/91 acute leuk.): 193.43
- enzyme activity, Grans (granulocytes [2]; J4 12/2/91 A L): 139.53
- enzyme activity, Grans (granulocytes [2]; J4 12/3/91 acute leuk.): 138.89
- enzyme activity, Grans (granulocytes [2]; J5 11/27/91 A M L): 194.85
- enzyme activity, Grans (granulocytes [2]; J19 11/27/91 C L L): 143.11
- enzyme activity, Grans (granulocytes [2]; J22 12/2/91 A M L): 157.12
- enzyme activity, Grans (granulocytes [2]; J22 12/9/91 A M L): 157.48
- enzyme activity, Grans (granulocytes [2]; N191 normal): 177.32
- enzyme activity, Grans (granulocytes [2]; N192 normal): 154.84
- enzyme activity, Grans (granulocytes [2]; N193 normal): 178.64
- enzyme activity, Grans (granulocytes [2]; N194 normal): 164.00
- enzyme activity, Grans (granulocytes [2]; N195 normal): 221.28
- enzyme activity, Grans (granulocytes [2]; N197 normal): 188.20
- enzyme activity, Grans (granulocytes [2]; N199 normal): 157.30
- enzyme activity, Grans (granulocytes [2]; N200 normal): 171.06
- enzyme activity, Grans (granulocytes [2]; N201 normal): 206.06
- enzyme activity, Grans (granulocytes [2]; N202 normal): 201.17
- enzyme activity, Grans (granulocytes [2]; N206 normal): 232.57
- enzyme activity, Grans (granulocytes [2]; P68 tachycardia): 276.07
- enzyme activity, Grans (granulocytes [2]; P69 pancreatic CA): 204.02
- enzyme activity, Grans (granulocytes [2]; P70 cirrhosis/hemobilia): 236.23
- enzyme activity, Grans (granulocytes [2]; P71 ac. pyelonephritis): 185.37
- aberrant enzyme activity, MONOS (monocytes; P88 Enteritis): .smallcircle.
- aberrant enzyme activity, MONOS (monocytes; P89 Viral Stomatitis): .smallcircle.
- aberrant enzyme activity, MONOS (monocytes; P92 Adenitis): + (>0.25 Increase over normal range)
- aberrant enzyme activity, MONOS (monocytes; P97 Pyelonephritis): + (>0.25 Increase over normal range)
- aberrant enzyme activity, MONOS (monocytes; P102 UTI): + (>0.25 Increase over normal range)
- aberrant enzyme activity, MONOS (monocytes; P103 Viral Syndrome): .smallcircle.
- aberrant enzyme activity, GRANS (granulocytes [3]; P88 Enteritis): .smallcircle.
- aberrant enzyme activity, GRANS (granulocytes [3]; P89 Viral Stomatitis): .smallcircle.
- aberrant enzyme activity, GRANS (granulocytes [3]; P92 Adenitis): + (>0.25 Increase over normal range)
- aberrant enzyme activity, GRANS (granulocytes [3]; P97 Pyelonephritis): + (>0.25 Increase over normal range)
- aberrant enzyme activity, GRANS (granulocytes [3]; P102 UTI): .smallcircle.
- aberrant enzyme activity, GRANS (granulocytes [3]; P103 Viral Syndrome): .smallcircle.
- aberrant enzyme activity, LYMPHS (lymphocytes [4]; P88 Enteritis): .smallcircle.
- aberrant enzyme activity, LYMPHS (lymphocytes [4]; P89 Viral Stomatitis): .smallcircle.
- aberrant enzyme activity, LYMPHS (lymphocytes [4]; P92 Adenitis): .smallcircle.
- aberrant enzyme activity, LYMPHS (lymphocytes [4]; P97 Pyelonephritis): .smallcircle.
- aberrant enzyme activity, LYMPHS (lymphocytes [4]; P102 UTI): .smallcircle.
- aberrant enzyme activity, LYMPHS (lymphocytes [4]; P103 Viral Syndrome): .smallcircle.
- MEAN DELTA FL ([1]; HIV + PATIENTS): 59.0
- MEAN DELTA FL ([1]; NORMALS): 132.0
- enzyme activity, Lymphs (lymphocytes [5]; J4 11/21/91 acute leuk.): 86.00
- enzyme activity, Lymphs (lymphocytes [5]; J4 12/2/91 A L): 68.10
- enzyme activity, Lymphs (lymphocytes [5]; J4 12/3/91 acute leuk.): 74.64
- enzyme activity, Lymphs (lymphocytes [5]; J5 11/27/91 A M L): 92.44
- enzyme activity, Lymphs (lymphocytes [5]; J19 11/27/91 C L L): 47.78
- enzyme activity, Lymphs (lymphocytes [5]; J22 12/2/91 A M L): 84.42
- enzyme activity, Lymphs (lymphocytes [5]; J22 12/9/91 A M L): 83.48
- enzyme activity, Lymphs (lymphocytes [5]; N191 normal): 95.72
- enzyme activity, Lymphs (lymphocytes [5]; N192 normal): 103.31
- enzyme activity, Lymphs (lymphocytes [5]; N193 normal): 100.50
- enzyme activity, Lymphs (lymphocytes [5]; N194 normal): 97.02
- enzyme activity, Lymphs (lymphocytes [5]; N195 normal): 118.81
- enzyme activity, Lymphs (lymphocytes [5]; N197 normal): 96.36
- enzyme activity, Lymphs (lymphocytes [5]; N199 normal): 91.07
- enzyme activity, Lymphs (lymphocytes [5]; N200 normal): 101.38
- enzyme activity, Lymphs (lymphocytes [5]; N201 normal): 106.72
- enzyme activity, Lymphs (lymphocytes [5]; N202 normal): 118.37
- enzyme activity, Lymphs (lymphocytes [5]; N206 normal): 122.71
- enzyme activity, Lymphs (lymphocytes [5]; P68 tachycardia): 1471.10
- enzyme activity, Lymphs (lymphocytes [5]; P69 pancreatic CA): 130.34
- enzyme activity, Lymphs (lymphocytes [5]; P70 cirrhosis/hemobilia): 141.87
- enzyme activity, Lymphs (lymphocytes [5]; P71 ac. pyelonephritis): 109.26

Structure (SMILES): C[C@H](N)C(=O)NCC(=O)Nc1ccc2c(c1)Oc1cc(NC(=O)CNC(=O)[C@H](C)N)ccc1C21OC(=O)c2ccccc21 [ALA--GLY****]
- MEAN DELTA FL ([1]; HIV + PATIENTS): 39.9 and 29.7
- MEAN DELTA FL ([1]; NORMALS): 48.0 and 31.6

Structure (SMILES): CC(C)C[C@H](NC(=O)CN)C(=O)Nc1ccc2c(c1)Oc1cc(NC(=O)[C@H](CC(C)C)NC(=O)CN)ccc1C21OC(=O)c2ccccc21 [GL, (H Gly--Leu)2 Rho 110 .2FTA]
- aberrant enzyme activity, MONOS (monocytes; P92 Adenitis): .smallcircle.
- aberrant enzyme activity, MONOS (monocytes; P97 Pyelonephritis): .smallcircle.
- aberrant enzyme activity, MONOS (monocytes; P103 Viral Syndrome): .smallcircle.
- aberrant enzyme activity, GRANS (granulocytes [3]; P92 Adenitis): .smallcircle.
- aberrant enzyme activity, GRANS (granulocytes [3]; P103 Viral Syndrome): .smallcircle.
- aberrant enzyme activity, LYMPHS (lymphocytes [4]; P92 Adenitis): .smallcircle.
- aberrant enzyme activity, LYMPHS (lymphocytes [4]; P97 Pyelonephritis): .smallcircle.
- aberrant enzyme activity, LYMPHS (lymphocytes [4]; P103 Viral Syndrome): .smallcircle.
- MEAN DELTA FL ([1]; HIV + PATIENTS): 16.3
- MEAN DELTA FL ([1]; NORMALS): 9.5
